One assay concerns HL-60. Kind of assay: Cytotoxicity against HL60 cells after 72 hrs by dye exclusion assay. Format: functional, cell-based. The settings on record: Homo sapiens, HL-60, 72 h.
The subject of assay [1] is Staphylococcus epidermidis. Put plainly: Growth inhibition of Staphylococcus epidermidis ATCC 12228 at 300 ug/mL. Format: functional, organism-based.
A short description of assay [2]: Cytotoxicity against adriamycin-resistant HL60/ADR cells expressing MRP1 after 72 hrs by dye exclusion assay. Format: functional, cell-based. The settings on record: Homo sapiens.
For assay [3], the system named is Escherichia coli. Kind of assay: Antimicrobial activity against Escherichia coli NCTC 8196. Format: functional.
The next assay concerns Enterococcus faecalis. Kind of assay: Antimicrobial activity against Enterococcus faecalis ATCC 29212. The class given is functional.
Assay [4] deals with Staphylococcus epidermidis. Put plainly: Growth inhibition of Staphylococcus epidermidis ATCC 12228 at 150 ug/mL. The class given is functional, organism-based.
Assay [5] has as its system Staphylococcus aureus. Put plainly: Growth inhibition of Staphylococcus aureus ATCC 29213 at 150 ug/mL. Format: functional, organism-based.
Another assay relates to Pseudomonas aeruginosa. Put plainly: Antimicrobial activity against Pseudomonas aeruginosa NCTC 6749. The class given is functional.
Assay [6] relates to Staphylococcus aureus. Kind of assay: Growth inhibition of Staphylococcus aureus ATCC 29213 at 300 ug/mL. Format: functional, organism-based.
A further assay concerns Candida albicans. Put plainly: Antimicrobial activity against Candida albicans ATCC 10231 at 37.5 ug/mL by MTT reduction assay. The class given is functional, organism-based. (Formazan colour is commonly taken as a measure of viable cells.)
The subject of assay [7] is Escherichia coli. Kind of assay: Antimicrobial activity against Escherichia coli NCTC 8196 at 300 ug/mL. Format: functional, organism-based.

Converted amounts (≈) assume the structure as drawn. The source made the active and inactive calls. The rule behind the calls is not given here.

Take `COc1cccc2c1C(=O)c1c(O)c3c(c(O)c1C2=O)C[C@@](O)(C(=O)CO)C[C@@H]3O[C@H]1C[C@H](N)[C@H](O)[C@H](C)O1` [DOXORUBICIN]: inhibition with HL-60 was half-maximal at 0.013 µM (IC50).

Regarding `C=C1C(=O)ON(C)C1C(C)CCC` (stereo not given), the result (in assay [1]; in assay [4]; with Staphylococcus aureus [5]; with Staphylococcus aureus [6]; with Candida albicans) was Active. For the same molecule, the results for the IC50 (in [2]; in the assay on HL-60) were 2.5 µM and 4.1 µM, respectively. The MIC is 75 µg/mL (≈ 409 µM) in the assay on Escherichia coli [3], at least 300 µg/mL in the assay on Enterococcus faecalis and 300 µg/mL (≈ 1640 µM) against Pseudomonas aeruginosa.

Regarding `C=C1C(=O)ON(C)C1c1ccc(C)cc1` (stereo not given), the result (in assay [1]; in [4]; with Staphylococcus aureus [5]; in the assay with Staphylococcus aureus [6]; with Candida albicans) was Active. In [2], this molecule displayed an IC50 of 6 µM. Further, the result in the assay with Escherichia coli [7] was inactive. In addition, the MIC in the assay with Enterococcus faecalis is at least 300 µg/mL; against Pseudomonas aeruginosa, 300 µg/mL (≈ 1480 µM).

As a reminder, the IC50 is the concentration that inhibits the measured activity by half. Usually MIC stands for the least concentration at which growth counts as inhibited. A higher MIC goes with a less susceptible organism.

These data come from ChEMBL document CHEMBL1142877, “Synthesis and biological evaluation of 4-methylideneisoxazolidin-5-ones--a new class of highly cytotoxic alpha-methylidene-gamma-lactones” (Eur J Med Chem, 2007).
